Data from patent publication US9439884B2, “Methods for the treatment of immune disorders” (Beth Israel Deaconess Medical Center, Inc., priority 2011, dated 2016).
Entries after “also recorded” stand apart in the source; their conditions may differ. Read-outs that look alike come from different tables or passages of the source. *1 amine or outer side, *2 acyl side, *3 side chain or, on linkers, in order; H or OH if unused. Where a SMILES comes first, the peptide text is derived from it. Where no end group is shown, it is not given here. [ ]: non-standard residue; d: D form. 15N‑Ala = Ala with single 15N label, C[C@H]([15NH][*:1])C(=O)[*:2]; pS = N[C@@H](COP(=O)(O)O)C(=O)O

Experiments:
Pin1 WW domain = target: T1, Pin1 WW domain (Homo sapiens, UniProt Q13526); experiment: 2D NMR (15N-1H HSQC) titration of 15N-WW domain with IRAK1 phosphopeptides; format: binding; conditions: chemical shift change of 15N-WW domain as a function of peptide concentration; read-out: dissociation constants (KD)
T1 construct: monitor the changes in the ^15N-WW domain induced by titration with phosphopeptide ligands
Source text: To measure the Pin1 interaction with each of the implicated pSer-Pro motifs in IRAK1, we employed two-dimensional (2D) NMR spectroscopy to monitor the changes in the ^15N-WW domain induced by titration with phosphopeptide ligands. In a 2d ^15N-^1H HSQC spectrum of a protein (FIG. 3a), each backbone NH group is represented by a peak, whose position reflects the chemical environment of that NH bond. Ligand binding to the protein is detected by changes in peak positions (fast exchange) or by the appearance of new peaks (slow exchange) as ligand is added. WW binding at each distinct IRAK1 site was measured using phosphopeptides containing residues 126-136 (pSer131-P132), 140-150 ([…]), and 157-180 (pSer173-P174) of IRAK1.

Pin1 [1] = target: T2, Pin1 (Homo sapiens, UniProt Q13526); experiment: Pin1 protein/mRNA levels and turnover in cells; format: cell-based
Source text: (§1) We developed a fluorescence polarization (FP)-based HTS using fluorescence labeled Pin1 peptidic inhibitor, pTide to identify Pin1 inhibitors. Our screening of selected compounds at the Harvard ICCB-L libraries identified the strongest hit to be cis-RA according to the Z-score (FIG. 31A). To confirm that RAs target Pin1, we examined cis-RA and trans-RA in vitro and in cells. […] Cellular Pin1 activity was also reflected by cyclin D1 levels (FIG. 31D), a known Pin1 biomarker.

T47D = experiment: Cell growth inhibition, T47D; format: cell-based; conditions: breast cancer cell line T47D
SKBR3 = experiment: Cell growth inhibition, SKBR3; format: cell-based; conditions: breast cancer cell line SKBR3
BM-derived eosinophils = experiment: IL-6 ELISA in IL-33-stimulated BM-derived eosinophils; format: cell-based; conditions: 100 ng/ml IL-33
pDCs = experiment: Cytokine production of pDCs upon TLR9 activation by CpG; format: cell-based
Pin1 [2] = target: T2, Pin1; experiment: Fluorescence polarization (FP)-based HTS / displacement of labeled Pin1 peptidic inhibitor pTide; format: binding
Source text: (§2) In this regard, recently, we identified specific and potent Pin1 catalytic peptidic inhibitors and used them to establish a robust and sensitive FP-based HTS to screen approved drugs and NIH Chemical and Genomics Center, which led us to successfully identify all trans retinoic acid (ATRA) and four other Pin1 inhibitors active in cells for further optimization including Cpd4 (FIG. 27A).
as §1

NZBWF1 mice = experiment: Proteinuria in lupus-prone NZBWF1 mice (Bio-Rad assay); format: in vivo; conditions: female NZBWF1 mice, controlled release pellets, 3.5 months, vs placebo
Method: Female lupus-prone NZBWF1 mice were treated with placebo or ATRA for 3.5 months and proteinuria was evaluated by Bio-Rad assay.
Our objective here was to determine if the Pin1 inhibitor we have discovered, ATRA, offer a treatment benefit in preclinical models of SLE. To this end we have been treating NZBWF1 female mice for 3.5 months with controlled release ATRA pellets, which have been well established pharmacologically and which offer the advantage ease of delivery, reduced stress to subjects and controlled drug release. Each cohort has been pre-bleed and urine collected before the start of drug treatment. Subsequently, we have collected serum and urine samples monthly for evaluation of disease markers such as autoantibodies and proteinuria.

cancer cells = experiment: Pin1-dependent cancer cell growth; format: cell-based
Source text: as §2

MCF-10A = experiment: Cell growth, normal breast cells MCF-10A; format: cell-based
Pin1 [3] = target: T2, Pin1; experiment: Pin1 PPIase (catalytic activity) assay in vitro; format: biochemical
Source text: as §2, §1

Pin1 [4] = target: T2, Pin1; experiment: Co-crystal structure of Pin1 and ATRA; format: binding
Pin1 KO MEFs = experiment: Anti-proliferative effect in Pin1 KO MEFs with or without Pin1 re-expression; format: cell-based, mouse
Pin1 [5] = target: T3, Pin1 (Mus musculus, UniProt Q9QUR7); experiment: Pin1 western and PPIase assay in IL-33-stimulated BM-derived eosinophils; format: cell-based; conditions: 100 ng/ml IL-33
T3 construct: endogenous in cells; host or cells: bone-marrow-derived eosinophils

lupus prone mouse models = conditions: some lupus prone mouse models; cited from earlier work
TLR9 = target: T4, TLR9 (Homo sapiens, UniProt Q9NR96); conditions: cited from earlier work
T4 sequence (Q9NR96 26-1032): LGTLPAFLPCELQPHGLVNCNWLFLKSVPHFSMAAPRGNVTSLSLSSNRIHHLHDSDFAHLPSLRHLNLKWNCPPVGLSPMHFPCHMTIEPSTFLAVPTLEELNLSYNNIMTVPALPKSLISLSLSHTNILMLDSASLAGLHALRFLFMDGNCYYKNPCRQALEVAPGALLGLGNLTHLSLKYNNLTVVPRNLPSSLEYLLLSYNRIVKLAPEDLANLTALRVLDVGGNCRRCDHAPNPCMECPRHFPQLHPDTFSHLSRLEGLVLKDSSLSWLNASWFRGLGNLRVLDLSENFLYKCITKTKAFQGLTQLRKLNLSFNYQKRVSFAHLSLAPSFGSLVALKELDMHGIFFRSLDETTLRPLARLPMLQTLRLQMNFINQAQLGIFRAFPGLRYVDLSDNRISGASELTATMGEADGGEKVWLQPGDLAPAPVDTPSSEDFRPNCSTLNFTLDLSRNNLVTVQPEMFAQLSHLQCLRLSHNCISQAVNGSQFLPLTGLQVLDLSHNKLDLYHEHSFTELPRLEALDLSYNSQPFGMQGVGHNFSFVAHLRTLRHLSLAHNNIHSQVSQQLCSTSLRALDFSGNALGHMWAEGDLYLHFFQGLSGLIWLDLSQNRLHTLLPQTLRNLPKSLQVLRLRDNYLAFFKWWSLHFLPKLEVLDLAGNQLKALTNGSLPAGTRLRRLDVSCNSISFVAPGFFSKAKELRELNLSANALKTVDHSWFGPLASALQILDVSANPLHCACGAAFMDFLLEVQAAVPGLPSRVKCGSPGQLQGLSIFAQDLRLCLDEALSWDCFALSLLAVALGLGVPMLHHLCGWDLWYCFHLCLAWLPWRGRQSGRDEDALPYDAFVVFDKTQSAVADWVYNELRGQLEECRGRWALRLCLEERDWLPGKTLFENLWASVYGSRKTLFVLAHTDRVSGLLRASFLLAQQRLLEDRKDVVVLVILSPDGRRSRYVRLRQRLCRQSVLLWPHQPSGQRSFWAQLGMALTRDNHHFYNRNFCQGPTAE

PP2A = experiment: Pin1 dephosphorylation in human PBMCs after TLR9 activation by CpG; format: cell-based; conditions: human PBMCs pretreated with 5 nM
Source text: We have shown that in SLE T cells the message, protein and activity of PP2Ac is increased and is involved in their abnormal function. First, PP2Ac dephosphorylates pCREB and accounts for the decreased IL-2 production. Second, PP2Ac dephosphorylates the transcription factor Elf1 and decreases its ability to bind to the promoters of CD3zeta and FcRgamma genes causing suppression of the first and derepression of the second with significant repercussions in the composition of the CD3 complex in SLE T cells. Third, PP2Ac dephosphorylates (and activates) SP1, which binds to the promoter of IL-17A and promotes its expression. […] Moreover, Pin1 also was dephosphorylated in T cells isolated from CD2:PP2A transgenic mice that overexpresses PP2Ac in T cells developed in Dr. Tsokos laboratory, but not wild-type littermates (FIG. 25E). Therefore, it is reasonable to predict that increased PP2Ac activity may contribute to the dephosphorylation and activation of Pin1 in SLE. Alternatively, because calcineurin (CaN) can also dephosphorylate Pin1 in vitro (FIG. 25) and CaN inhibitors may have a place in the treatment of SLE, we will consider it as a viable alternative to PP2Ac.

Pin1 [6] = target: T2, Pin1; experiment: 15N-1H Nzz exchange spectroscopy of Pin1-catalyzed cis-trans isomerization; format: biochemical; conditions: pS173P peptide bond; peptide 1 mM, Pin1 17 μM
Source text: Because uncatalyzed cis-trans isomerization is a generally slow process (time constant minutes), the equilibrium between cis and trans isomers yields two distinct peaks for residues (such as A175) whose chemical environment differs in the two isomer states. […] The dependence of peak intensities on Nzz mixing time yields the cis-trans exchange rate. […] Based on peak intensities in the absence of Pin1, the pS173P trans:cis ratio is 85:15.

T2 sequence (Q13526 whole entry): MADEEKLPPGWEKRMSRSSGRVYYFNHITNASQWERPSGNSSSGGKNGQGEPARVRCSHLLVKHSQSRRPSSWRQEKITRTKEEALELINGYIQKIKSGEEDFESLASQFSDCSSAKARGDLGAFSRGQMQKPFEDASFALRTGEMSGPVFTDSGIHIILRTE
T3 sequence (Q9QUR7 whole entry): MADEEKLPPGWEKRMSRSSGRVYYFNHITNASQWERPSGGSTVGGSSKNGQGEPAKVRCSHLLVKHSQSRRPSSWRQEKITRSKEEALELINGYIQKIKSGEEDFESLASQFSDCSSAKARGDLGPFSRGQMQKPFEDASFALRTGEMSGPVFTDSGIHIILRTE
T1 sequence (Q13526 5-39 limits assumed): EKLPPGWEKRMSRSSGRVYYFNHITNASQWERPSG

Compound: CC(C)C[C@H](NC(=O)[C@H](CCCCN)NC(=O)[C@H](CCCNC(=N)N)NC(=O)[C@@H]1CCCN1C(=O)[C@H](COP(=O)(O)O)NC(=O)[C@H](Cc1c[nH]c2ccccc12)NC(=O)[C@H](C)NC(=O)[C@H](CCC(=O)O)NC(=O)[C@H](C)NC(=O)[C@@H](N)CCC(=O)O)C(=O)N1CCC[C@H]1C(=O)O [126-136 (pSer131-P132)] (H-EAEAW[pS]PRKLP-OH)
- Kd (Pin1 WW domain): 220 ± 15 µM

Compound: CC1=C(/C=C/C(C)=C/C=C/C(C)=C/C(=O)O)C(C)(C)CCC1 [ATRA, all trans retinoic acid]
- Pin1 levels (Pin1 [1]; breast cancer cell lines SKBR3 and T47D): reducing Pin1 levels
- degradation of Pin1 and its substrate D1 (Pin1 [1]; cancer cells): induced the degradation
- inhibition of cell growth (T47D): inhibiting cell growth
- inhibition of cell growth (SKBR3): inhibiting cell growth
- IL-6 secretion (BM-derived eosinophils): inhibited
- production of IL6 (pDCs): suppressed
- production of IL12 (pDCs): suppressed
- production of TNF-α (pDCs): suppressed
- Pin1 inhibition in FP assays (Pin1 [2]; compared with cis-RA): more potent Pin1 inhibition than cis-RA
- competition with Pin1 catalytic peptidic inhibitors for binding to the Pin1 active site (Pin1 [2]; preliminary results): effectively competed
- proteinuria (NZBWF1 mice): significantly reduced
- inhibition of Pin1-dependent cancer cell growth (cancer cells): inhibited Pin1-dependent cancer cell growth
- effect on normal breast cells (MCF-10A): without any effects
- inhibition of Pin1 catalytic (PPIase) activity (Pin1 [3]): inhibited its catalytic activity
- inhibition of Pin1 catalytic (PPIase) activity (Pin1 [3]; listed as trans-RA): Dose-dependant Pin1 inhibition; also recorded: inhibiting Pin1 PPIase assays
- binding site in co-crystal structure (Pin1 [4]): bound to Pin1 active site
- sensitivity to anti-proliferative effects (Pin1 KO MEFs; Pin1 KO MEFs): much more resistant
- drug sensitivity (Pin1 KO MEFs; Pin1 KO MEFs with stable re-expression of Pin1 (not its inactive mutant)): fully restored
- Pin1 activation (PPIase assay) (Pin1 [5]): inhibited Pin1 activation
- Pin1 degradation (Pin1 western) (Pin1 [5]): induced Pin1 degradation
- SLE-related phenotypes (lupus prone mouse models): suppress SLE-related phenotypes

Compound: CC1=C(/C=C/C(C)=C/C=C/C(C)=C\C(=O)O)C(C)(C)CCC1 [cis-RA, 13-cis retinoic acid]
- hit ranking according to the Z-score (Pin1 [2]; screening of Harvard ICCB-L libraries): strongest hit
- inhibition of Pin1 catalytic (PPIase) activity (Pin1 [3]): Dose-dependant Pin1 inhibition

Compound: CCN(CCO)CCCC(C)Nc1ccnc2cc(Cl)ccc12 (stereo not drawn) [hydroxychloroquine]
- stimulation of TLR9 (TLR9): inhibits stimulation of TLR9

Compound: C=C1[C@@H](O)[C@@H]2O[C@]3(CC[C@H](/C=C/[C@@H](C)[C@@H]4CC(C)=C[C@@]5(O[C@H](C[C@@](C)(O)C(=O)O)CC[C@H]5O)O4)O3)CC[C@H]2O[C@@H]1[C@@H](O)C[C@H](C)[C@H]1O[C@@]2(CCCCO2)CC[C@H]1C [okadaic acid]
- Pin1 dephosphorylation after CpG (PP2A): reversed

Compound: ^15N-Ala175-UD157-180: IRAK1 UD157-180 phosphopeptide with a single 15N label at Ala175 (ELGLVPSPASLWPPPP[pS]P[15N‑Ala]PSSTK; not fully specified; also: other phosphorylation sites not given here; UniProt P51617 157-180, looked up, fragment)
- Pin1-catalyzed isomerization rate kex (Pin1 [6]): 27 s⁻¹
